Measurements reported in patent US20120149654A1 (priority 2009, published 2012).

Tested on: ScGT1 cells
Conditions: for cells remaining viable after treatment: mouse

Row | Substance | cell viability / cytotoxicity | cells remaining viable after treatment [%]
1 | fulvic acids [FA] | remain viable | 94
2 | humic acids [HA] | remain viable | 96
